# Reference: patent US8377974B2 (Millennium Pharmaceuticals, Inc., priority 2004, dated 2013)
# Molecular target: T1, human plasma protein factor Xa (Homo sapiens, UniProt P00742)
# T1 construct: measure proteolytic activity of the enzyme (factor Xa); purchased Haematologic Technologies (Essex Junction, Vt.); host or cells: human plasma
# Test: Factor Xa IC50 determination: cleavage of paranitroanilide substrate S-2765 in 96-well plates
# Type: biochemical
# Conditions: fXa 1 nM, S-2765 100 μM, Tris buffered saline pH 7.4, room temperature
# Summary of the method: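 Human plasma factor Xa (1 nM) preincubated 5 min at room temperature with inhibitor (0.01 nM–10 μM final) in Tris-buffered saline pH 7.4 with 5 mM CaCl2, 0.1% BSA, 5% DMSO. S-2765 at 100 μM final; hydrolysis at 405 nm over 2 min. IC50 from 4-parameter fit of initial velocities.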
# T1 sequence (P00742 235-488 limits assumed): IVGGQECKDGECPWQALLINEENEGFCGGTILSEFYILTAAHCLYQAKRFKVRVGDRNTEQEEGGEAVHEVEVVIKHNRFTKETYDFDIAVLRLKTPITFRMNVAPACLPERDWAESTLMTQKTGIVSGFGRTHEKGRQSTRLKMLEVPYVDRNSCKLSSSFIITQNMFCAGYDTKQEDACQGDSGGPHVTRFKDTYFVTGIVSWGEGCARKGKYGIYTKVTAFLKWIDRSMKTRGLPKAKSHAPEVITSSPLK
# T1 sequence (P00742 41-179 partner limits assumed): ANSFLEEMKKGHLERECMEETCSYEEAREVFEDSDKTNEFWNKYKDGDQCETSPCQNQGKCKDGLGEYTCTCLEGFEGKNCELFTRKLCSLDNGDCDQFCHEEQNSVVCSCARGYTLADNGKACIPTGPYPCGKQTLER
row,IC50 [nM],SMILES
1,≤ 100,"COc1cccn(-c2ccc(-n3cc(CNC(=O)c4ccc(Cl)s4)nn3)cc2)c1=O [Example 294, 5-Chloro-N-((1-(4-(3-methoxy-2-oxopyridin-1(2H)-yl)phenyl)-1H-1,2,3-triazol-4-yl)methyl)thiophene-2-carboxamide]"
2,≥ 500,"CN(Cc1cc(-c2ccc(C3=NCCN3C)cc2)no1)C(=O)c1ccc(Cl)s1 [Example 36, 5-Chloro-thiophene-2-carboxylic acid methyl-{3-[4-(1-methyl-4,5-dihydro-1H-imidazol-2-yl)-phenyl]-isoxazol-5-ylmethyl}-amide]"
3,≤ 100,"Cc1cnccc1Nc1ccc(C2=NOC(CNC(=O)c3ccc(Cl)s3)C2)cc1 (stereo not drawn) [Example 400, 5-Chloro-N-((3-(4-(3-methylpyridin-4-ylamino)phenyl)-4,5-dihydroisoxazol-5-yl)methyl)thiophene-2-carboxamide]"
4,≤ 100,"CCOc1cc(C(=N)N(C)C)ccc1-c1cc(CNC(=O)c2ccc(Cl)s2)on1 [Example 122, 5-Chloro-thiophene-2-carboxylic acid {3-[4-(N,N-dimethyl-carbamimidoyl)-2-ethoxy-phenyl]-isoxazol-5-ylmethyl}-amide]"
5,100 to 500,"CC1CCCN1C(=O)c1ccc(C2=NOC(CNC(=O)c3ccc(Cl)s3)C2)cc1 (stereo not drawn) [Example 165, 5-Chloro-thiophene-2-carboxylic acid {3-[4-(2-methyl-pyrrolidine-1-carbonyl)-phenyl]-4,5-dihydro-isoxazol-5-ylmethyl}-amide]"
6,≤ 100,"CCN(C)C(=N)c1ccc(-n2cc(CNC(=O)c3ccc(Cl)s3)nn2)cc1 [Example 314, N-((1-(4-(N-Ethyl-N-methylcarbamimidoyl)phenyl)-1H-1,2,3-triazol-4-yl)methyl)-5-chlorothiophene-2-carboxamide]"
7,≥ 500,"O=C(NCc1cc(-c2ccc(N3CCCC3)cc2)no1)c1ccc(Cl)s1 [Example 256, 5-Chloro-thiophene-2-carboxylic acid [3-(4-pyrrolidin-1-yl-phenyl)-isoxazol-5-ylmethyl]-amide]"
8,≤ 100,"O=C(NCc1cc(-c2ccc(Nc3cccnc3)cc2)no1)c1ccc(Cl)s1 [Example 253, 5-Chloro-thiophene-2-carboxylic acid {3-[4-(pyridin-3-ylamino)-phenyl]-isoxazol-5-ylmethyl}-amide]"
9,100 to 500,"N=C(c1ccc(C2=NOC(CNC(=O)c3ccc(Cl)s3)C2)c(N2CCOCC2)c1)N1CCCC1 (stereo not drawn) [Example 84, 5-Chloro-thiophene-2-carboxylic acid {3-[4-(imino-pyrrolidin-1-yl-methyl)-2-morpholin-4-yl-phenyl]-4,5-dihydro-isoxazol-5-ylmethyl}-amide]"
10,≤ 100,"COc1cc(C2=NCCN2C)ccc1-c1cc(CNC(=O)c2ccc(Cl)s2)on1 [Example 119, 5-Chloro-thiophene-2-carboxylic acid {3-[2-methoxy-4-(1-methyl-4,5-dihydro-1H-imidazol-2-yl)-phenyl]-isoxazol-5-ylmethyl}-amide]"
11,≤ 100,"N=C(c1ccc(-c2noc(CNC(=O)c3ccc(Cl)s3)n2)cc1)N1CCCCC1 [Example 337, 5-Chloro-N-((3-(4-(imino(piperidin-1-yl)methyl)phenyl)-1,2,4-oxadiazol-5-yl)methyl)thiophene-2-carboxamide]"
12,≥ 500,"CCN(CC)CCN(C)C(=O)c1ccc(-c2cc(CNC(=O)c3ccc(Cl)s3)on2)cc1 [Example 168, 5-Chloro-thiophene-2-carboxylic acid (3-{4-[(2-diethylamino-ethyl)-methyl-carbamoyl]-phenyl}-isoxazol-5-ylmethyl)-amide]"
13,≤ 100,"O=C(NCC1CC(c2ccc(N3CCOCCC3=O)cc2)=NO1)c1ccc(Cl)s1 (stereo not drawn) [Example 246, 5-Chloro-thiophene-2-carboxylic acid {3-[4-(5-oxo-[1,4]oxazepan-4-yl)-phenyl]-4,5-dihydro-isoxazol-5-ylmethyl}-amide]"
14,≥ 500,"CN(C)Cc1cccc(-c2cccc(C3=NOC(CNC(=O)c4ccc(Cl)s4)C3)c2)c1 (stereo not drawn) [Example 264, 5-Chloro-thiophene-2-carboxylic acid [3-(3′-dimethylaminomethyl-biphenyl-3-yl)-4,5-dihydro-isoxazol-5-ylmethyl]-amide]"
15,≤ 100,"N#Cc1ccc(-c2cc(CNC(=O)c3ccc(Cl)s3)on2)cc1 [Example 20, 5-Chloro-thiophene-2-carboxylic acid [3-(4-cyano-phenyl)-isoxazol-5-ylmethyl]-amide]"
16,≤ 100,"CN(C)C(=N)c1ccc(-n2cc(CNC(=O)c3ccc(Cl)s3)nn2)c(F)c1 [Example 320, N-((1-(4-(N,N-Dimethylcarbamimidoyl)-2-fluorophenyl)-1H-1,2,3-triazol-4-yl)methyl)-5-chlorothiophene-2-carboxamide]"
17,≥ 500,"CN(Cc1cc(-c2ccc(C(N3CCC3)=[N+]3CCC3)cc2)no1)C(=O)c1ccc(Cl)s1 [Example 41, 5-Chloro-thiophene-2-carboxylic acid {3-[4-(azetidin-1-yl-azetidin-1-ylidene-methyl)-phenyl]-isoxazol-5-ylmethyl}-methyl-amide]"

row,IC50 [nM],SMILES
1,≤ 100,"C[C@@H](NC(=O)c1ccc(Cl)s1)c1cc(-c2ccc(C(=N)N3CCCC3)cc2)no1 [Example 51, (R)-5-Chloro-thiophene-2-carboxylic acid (1-{3-[4-(imino-pyrrolidin-1-yl-methyl)-phenyl]-isoxazol-5-yl}-ethyl)-amide]"
2,≤ 100,"CN(C)C(=N)c1ccc(-c2cc(CNC(=O)c3ccc(Cl)s3)no2)cc1 [Example 330, N-((5-(4-(N,N-Dimethylcarbamimidoyl)phenyl)isoxazol-3-yl)methyl)-5-chlorothiophene-2-carboxamide]"
3,≥ 500,"O=C(NCC1CC(c2ccc(-c3ccncc3)cc2)=NO1)c1ccc(Cl)s1 (stereo not drawn) [Example 191, 5-Chloro-thiophene-2-carboxylic acid [3-(4-pyridin-4-yl-phenyl)-4,5-dihydro-isoxazol-5-ylmethyl]-amide]"
4,≤ 100,"N=C(c1ccc(-c2cc(CNC(=O)c3ccc(Cl)s3)on2)c(F)c1)N1CCCC1 [Example 71, 5-Chloro-thiophene-2-carboxylic acid {3-[2-fluoro-4-(imino-pyrrolidin-1-yl-methyl)-phenyl]-isoxazol-5-ylmethyl}-amide]"
5,≤ 100,"CN1CCN=C1c1ccc(-c2cc(CNC(=O)c3ccc(Cl)s3)on2)c(N2CCOCC2)c1 [Example 99, 5-Chloro-thiophene-2-carboxylic acid {3-[4-(1-methyl-4,5-dihydro-1H-imidazol-2-yl)-2-morpholin-4-yl-phenyl]-isoxazol-5-ylmethyl}-amide]"
6,≥ 500,"CNC(=N)c1ccc(-c2nc(CNC(=O)c3ccc(Cl)s3)co2)cc1 [Example 348, N-((2-(4-(N-Methylcarbamimidoyl)phenyl)oxazol-4-yl)methyl)-5-chlorothiophene-2-carboxamide]"
7,100 to 500,"C#CCN(C)C(=N)c1ccc(C2=NOC(CNC(=O)c3ccc(Cl)s3)C2)cc1 (stereo not drawn) [Example 13, 5-Chloro-thiophene-2-carboxylic acid {3-[4-(N-methyl-N-prop-2-ynyl-carbamimidoyl)-phenyl]-4,5-dihydro-isoxazol-5-ylmethyl}-amide]"
8,≥ 500,"COc1ccc(CN(C)C)c(-c2ccc(-c3cc(CNC(=O)c4ccc(Cl)s4)on3)cc2)c1 [Example 215, 5-Chloro-thiophene-2-carboxylic acid [3-(2′-dimethylaminomethyl-5′-methoxy-biphenyl-4-yl)-isoxazol-5-ylmethyl]-amide]"
9,≤ 100,"O=C(NCC1CC(c2ccc(C(=O)N3CCC3)cc2)=NO1)c1ccc(Cl)s1 (stereo not drawn) [Example 163, 5-Chloro-thiophene-2-carboxylic acid {3-[4-(azetidine-1-carbonyl)-phenyl]-4,5-dihydro-isoxazol-5-ylmethyl}-amide]"
10,≤ 100,"CN1CCN=C1c1ccc(C2=NOC(C)(CNC(=O)c3ccc(Cl)s3)C2)cc1 (stereo not drawn) [Example 58, 5-Chloro-thiophene-2-carboxylic acid {5-methyl-3-[4-(1-methyl-4,5-dihydro-1H-imidazol-2-yl)-phenyl]-4,5-dihydro-isoxazol-5-ylmethyl}-amide]"
11,≤ 100,"N=C(c1ccc(-c2cncc(CNC(=O)c3ccc(Cl)s3)c2)cc1)N1CCC1 [Example 371, N-((5-(4-(Azetidin-1-yl(imino)methyl)phenyl)pyridin-3-yl)methyl)-5-chlorothiophene-2-carboxamide]"
12,≤ 100,"CN(C)C(=N)c1ccc(-c2cncc(CNC(=O)c3ccc(Cl)s3)c2)cc1 [Example 369, N-((5-(4-(N,N-Dimethylcarbamimidoyl)phenyl)pyridin-3-yl)methyl)-5-chlorothiophene-2-carboxamide]"
13,≤ 100,"N=C(c1ccc(-n2cnc(CNC(=O)c3ccc(Cl)s3)c2)cc1)N1CCCCC1 [Example 368, 5-Chloro-N-((1-(4-(imino(piperidin-1-yl)methyl)phenyl)-1H-imidazol-4-yl)methyl)thiophene-2-carboxamide]"
14,≤ 100,"CN(C)CCCN(C)c1ccc(C2=NOC(CNC(=O)c3ccc(Cl)s3)C2)cc1 (stereo not drawn) [Example 239, 5-Chloro-thiophene-2-carboxylic acid (3-{4-[(3-dimethylamino-propyl)-methyl-amino]-phenyl}-4,5-dihydro-isoxazol-5-ylmethyl)-amide]"
15,≥ 500,"O=C(NCC1CC(c2ccc(-c3ccccc3CN3CCCCCC3)cc2)=NO1)c1ccc(Cl)s1 (stereo not drawn) [Example 201, 5-Chloro-thiophene-2-carboxylic acid [3-(2′-azepan-1-ylmethyl-biphenyl-4-yl)-4,5-dihydro-isoxazol-5-ylmethyl]-amide]"
16,≤ 100,"COCCN(C)c1cc(C(=N)N(C)C)ccc1C1=NOC(CNC(=O)c2ccc(Cl)s2)C1 (stereo not drawn) [Example 86, 5-Chloro-thiophene-2-carboxylic acid (3-{4-(N,N-dimethyl-carbamimidoyl)-2-[(2-methoxy-ethyl)-methyl-amino]-phenyl}-4,5-dihydro-isoxazol-5-ylmethyl)-amide]"
